What is called melting point is the temperature, or range, at which the solid turns liquid. As usually defined, the IC50 is the concentration that inhibits the measured activity by half.

In data set [1] the test system is LNCaP human prostate cancer cell line. Put plainly: MTT cytotoxicity test, LNCaP. It counts as cell-based. The conditions noted are these: for CC50: Homo sapiens, LNCaP, read-out: CC50, LNCaP; for selectivity index S for LNCaP/PC3 cells: ratio of CC50 values of the cell line pair. On the technique in general: Tetrazolium assays rely on reduction of a dye to a coloured formazan, in cell work by metabolically active cells.

In data set [2] the test system is A549 human lung adenocarcinoma epithelial cell line. Put plainly: MTT cytotoxicity test, A549. It counts as cell-based. As to conditions: 72 h incubation.
In data set [3] the test system is HCT116^+/+ human colon cancer cells (p53 positive). Kind of data set: MTT cytotoxicity test, HCT116 p53+/+. The conditions noted are these: for CC50: Homo sapiens, HCT-116, read-out: CC50, HCT^+/+; for selectivity S against HCT116^+/+ over HCT116^−/−: ratio of CC50 values of the cell line pair. The source says: (§1) The used models included human prostate cancer cell lines LNCaP and PC3, breast cancer cell line (MCF-7), human colon cancer cells (HCT116^+/+, p53 positive, p53^+/+ and HCT116^−/−, p53 negative, p53^−/−), human lung adenocarcinoma epithelial cell line (A549), SV40-transformed normal human lung fibroblast cells (VA13), as well as human embryonic kidney 293 cells (Hek293) stably expressing SV40 large T antigen (Hek293T). The cytotoxicity of the evaluated molecules was properly assessed using a MTT assay based on the modified approach reported by Ferrari and colleagues.
(§2) To further elucidate the dominant mode of action, we used HCT116^+/+ and HCT116^−/− cells by analogy with the paper published by Shangary and colleagues. This isogenic cell line is commonly applied to investigate the p53/MDM2-dependent mode of action.
(§3) MTT test. The MTT assay was carried out according to [35] with few modifications; 3000 Cells (for HEK293T, A549 and MCF7cell lines) or 4000 cells (for VA13 cell line) were seeded in each well of a 96-well plate. […] Assays were performed in triplicates. […] The MTT solution was then discarded and 140 µL of DMSO was added. The plates were swayed on a shaker (60 rpm) to solubilize the formazan. […] The analysis of cytotoxicity and the estimation of IC50 values were carried out with the built-in functions in the GraphPad Prism program (GraphPad Software, Inc., San Diego, CA) P53 activation.

For data set [4], the system named is HCT116^−/− human colon cancer cells (p53 negative). Put plainly: MTT cytotoxicity test, HCT116 p53-/-. As to conditions: HCT-116, read-out: CC50, HCT^−/−.
Source text: as §1, §2, §3

Data set [5] in a line: MTT cytotoxicity test, VA13. It counts as cell-based. The conditions noted are these: human, VA13 SV40-transformed normal lung fibroblast cells, 72 h incubation. On the procedure:
(§4) MTT test. […] Assays were performed in triplicates.

Data set [6] concerns MCF7 breast cancer cell line. Put plainly: MTT cytotoxicity test, MCF7. It counts as cell-based. As to conditions: Homo sapiens, 72 h incubation. On the procedure: as §4
The nature of data set [7]: MTT cytotoxicity test, Hek293T. It counts as cell-based. As to conditions: human, 72 h incubation.
Data set [8] relates to PC3 human prostate cancer cell line. Put plainly: MTT cytotoxicity test, PC3. It counts as cell-based. The conditions noted are these: Homo sapiens.
Data set [9] has as its system p53 expression level in p53wt A549 cell line. Kind of data set: p53 activation, β-galactosidase reporter construction. The conditions noted are these: high concentrations (>100 μM), 24 h.
Protocol: The β-galactosidase reporter construction equipped with the p53 promotor frame [46] was used to assess the p53 expression level in p53wt A549 cell line. The compounds were tested in the concentration range of 0.5–120 μM with triple dilution steps. The incubation time was 24 h. To take into account the toxic effect of the molecules, the output signal was normalized considering the number of the cells estimated by MTT test with the same incubation tome (24 h). The output was statistically significant if the background signal was exceeded two or more times.
The subject of a further data set is HEK293 cells. Set-up: method as in PMID 21058726. As to conditions: 24 h cytotoxicity, MTT assay; cited from earlier work.
The test system of another data set is HCT116 cells. Further details: method as in PMID 24997575. As to conditions: MTT assay; cited from earlier work.
Data set [10] relates to HCT116^+/+ human colon carcinoma cells. Set-up: method as in PMID 28339198. As to conditions: cited from earlier work.
The test system of data set [11] is PC3 human prostate adenocarcinoma cells (p53-null). Set-up: method as in PMID 28339198. As to conditions: mitogenesis inhibition, dye assay, WST-8; cited from earlier work.
The test system of data set [12] is LNCaP cells (androgen-dependent). Set-up: method as in PMID 28339198. As to conditions: mitogenesis inhibition, dye assay, WST-8; cited from earlier work.
Data set [13] concerns HCT116^−/− human colon carcinoma cells. Further details: method as in PMID 28339198. As to conditions: cited from earlier work.
Data set [14] deals with MCF7 cells (hormone-dependent). Further details: method as in PMID 23802716. The conditions noted are these: cited from earlier work.
Another data set has as its system PC3 cell line. Set-up: method as in PMID 23802716. The conditions noted are these: cited from earlier work.

For the compound `CN1CC2(NC(=S)N(CCCN3CCOCC3)C2=O)C2(C1)C(=O)Nc1ccccc12` (stereo not drawn) [Compound 4u, 1′-Methyl-1-(3-morpholinopropyl)-2-thioxodispiro[imidazolidine-4,3′-pyrrolidine-4′,3″-indoline]-2″,5-dione], the melting point lay in the range of 216 to 217 °C. In data set [1] (MTT test), the CC50 was determined as 3.4 ± 0.6 µM and the “selectivity on LNCaP cells over PC3 cells” value is given as “selective”. The “selectivity index S for LNCaP/PC3 cells” value in data set [1] is 15.7. Moreover, the CC50 in data set [2] is > 100 µM. For the same compound, in data set [3], the CC50 is 20.8 ± 4.8 µM and the “selectivity S against HCT116^+/+ over HCT116^−/−” value is listed as > 1.8. The CC50 in data set [4] is > 100 µM. Also, the CC50 at 72 h in data set [5] was > 100 µM. Besides, in data set [6], the CC50 is > 100 µM. Moreover, the CC50 at 72 h in data set [7] is > 100 µM. The same compound returned a CC50 in data set [8] of 53.6 ± 17.3 µM.

As for `CN1CC2(NC(=S)N(c3ccccc3)C2=O)C2(C1)C(=O)Nc1ccccc12` (stereo not drawn) [Compound 4w, 1′-Methyl-1-phenyl-2-thioxodispiro[imidazolidine-4,3′-pyrrolidine-4′,3″-indoline]-2″,5-dione], the melting point was 273 to 274 °C. Moreover, in data set [1] (MTT test), the CC50 was 9.8 ± 1.8 µM. For the same compound, the “selectivity index S for LNCaP/PC3 cells” value in data set [1] was determined as 5.3. In addition, in data set [2], the CC50 is > 100 µM. Further, in data set [3], the CC50 amounted to 54.7 ± 9.5 µM and the “selectivity S against HCT116^+/+ over HCT116^−/−” value is given as > 4.8. Besides, the CC50 in data set [4] was > 100 µM. In [5], this compound registered a CC50 at 72 h of 94.1 ± 19.7 µM. For the same compound, the CC50 in [6] stood at 57.9 ± 17.1 µM. The CC50 at 72 h in data set [7] amounted to 75.1 ± 8.6 µM. For the same compound, the CC50 in data set [8] came to 52.2 ± 11.6 µM.

Regarding `CN1CC2(NC(=O)N(c3ccc(F)c(Cl)c3)C2=O)C2(C1)C(=O)Nc1ccc(Cl)cc12` (stereo not drawn) [Compound 9r, 5″-Chloro-1-(3-chloro-4-fluorophenyl)-1′-methyldispiro[imidazolidine-4,3′-pyrrolidine-4′,3″-indoline]-2,2″,5-trione], the results for the CC50 in data set [1] (MTT test), in data set [2] and in [8] were 19.6 ± 1.8 µM, 35.3 ± 17.7 µM and > 50 µM, respectively. For the same compound, in data set [1] (MTT test), the “CC50, LNCaP” value was “good activity”. Moreover, the “selectivity on LNCaP cells over PC3 cells” value in [1] (MTT test) is on record as “selective”. In addition, in data set [7], the CC50 at 72 h was found to be 15.1 ± 1.2 µM. For the same compound, the p53 activation in data set [9] is 2.1 fold.

Consider `O=C1C2CCC3(C(=O)Nc4ccccc43)C2C(=O)N1Cc1ccc(Cl)cc1` (stereo not drawn) [Compound IV], for which the CC50 in the data set on HEK293 cells was 0.44 µM.

Turning to `CC(C)(C)CC1N[C@@H](C(=O)Nc2ccc(C(N)=O)cc2)[C@H](c2ccc(F)c(Cl)c2)C12C(=O)Nc1cc(Cl)ccc12` (stereo partly drawn) [Compound V], the concentration for half-maximal inhibition (IC50) in the data set on HCT116 cells was 0.09 µM.

Take `CCN1[C@@H](C(=O)CC23CCC(C(=O)O)(CC2)CC3)[C@H](c2ccc(F)c(Cl)c2)C2(C(=O)Nc3cc(Cl)ccc32)C12CCCCC2` (stereo partly drawn) [II]: in data set [10] (HCT116^+/+ vs HCT116^−/−), the “selectivity towards p53-positive cells” value is listed as 80 fold. The half-inhibitory concentration (IC50) in data set [10] is 0.1 µM; in data set [11] it was 22 µM; in data set [12], 0.018 ± 0.013 µM; in [13] it was 8 µM.

For `CCOC(=O)C1CSC2(C(=O)N(C)c3ccc(Br)cc32)N1C(=O)C1CCCCC1` (stereo not drawn) [VI], the 50% inhibitory concentration (IC50) was 0.04 µM in [14] and 0.41 µM in the data set with PC3 cell line.
